Assay results reported in ChEMBL document CHEMBL1201862, “PubChem BioAssay data set” (2004).
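A five-concentration, 48-hour dose response in 96-well plates underlies each endpoint, interpolated linearly between surrounding concentrations. GI50 marks 50% less growth.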 The source made the active and inactive calls. Cut-off read from the data, not from the text of the source: active = GI50 up to about 1.1 µM and inactive = higher.

Columns and labels:
Assay in all cases: DTP human tumour cell line panel, 48 h
[1] = tested on: A549
[2] = tested on: TK-10
[3] = tested on: MDA-N
[4] = tested on: HCT-15
[5] = tested on: K562
[6] = tested on: BT-549
[7] = tested on: OVCAR-3
[8] = tested on: COLO 205
[9] = tested on: CAKI-1
[10] = tested on: OVCAR-4
[11] = tested on: HCC 2998
[12] = tested on: UACC-62
[13] = tested on: MOLT-4
[14] = tested on: HT-29
[15] = tested on: SNB-75
[16] = tested on: LOX IMVI
[17] = tested on: MCF7
[18] = tested on: U-251
[19] = tested on: SK-MEL-2
[20] = tested on: SNB-19

Row | SMILES | GI50 [1] | GI50 [2] | GI50 [3] | GI50 [4] [µM] | GI50 [5] | GI50 [6] | GI50 [7] | GI50 [8] | GI50 [9] | GI50 [10] | GI50 [11] | GI50 [12] | GI50 [13] | GI50 [14] | GI50 [15] | GI50 [16] | GI50 [17] | GI50 [18] | GI50 [19] | GI50 [20]
1 | COc1cc(C(N)=O)cc(NC(=O)/C=C/c2ccccc2)c1OC | > 100 µM (inactive) | > 100 µM (inactive) | > 100 µM (inactive) | > 100 | > 100 µM (inactive) | > 100 µM (inactive) | 97.5 µM (inactive) | > 100 µM (inactive) | > 100 µM (inactive) | > 100 µM (inactive) | > 100 µM (inactive) | > 100 µM (inactive) | > 100 µM (inactive) | > 100 µM (inactive) | 19.7 µM (inactive) | > 100 µM (inactive) | > 100 µM (inactive) | > 100 µM (inactive) | > 100 µM (inactive) | 27.7 µM (inactive)
2 | O=C(CNc1ccc2c(=S)c3ccccc3[nH]c2c1)Nc1ccccc1-c1ccccc1NC(=O)CNc1ccc2c(=S)c3ccccc3[nH]c2c1 | 24.3 µM (inactive) | 26.1 µM (inactive) | 18.1 µM (inactive) | 19.4 | 2.85 µM (inactive) | 23.8 µM (inactive) | 24.8 µM (inactive) | 11.9 µM (inactive) | 30.1 µM (inactive) | 3.94 µM (inactive) | 15.1 µM (inactive) | 18.2 µM (inactive) | 3.96 µM (inactive) | 19.7 µM (inactive) | 26.5 µM (inactive) | 19.9 µM (inactive) | 16.4 µM (inactive) | 19.6 µM (inactive) | 15.6 µM (inactive) | 17.2 µM (inactive)
3 | O=C(OCC1OC(n2nc(Cn3nnc(-c4cccnc4)n3)n(-c3cccc4ccccc34)c2=S)C(OC(=O)c2ccccc2)C1OC(=O)c1ccccc1)c1ccccc1 (stereo not given) | > 100 µM (inactive) | > 100 µM (inactive) | > 100 µM (inactive) | > 100 | > 100 µM (inactive) | > 100 µM (inactive) | > 100 µM (inactive) | > 100 µM (inactive) | > 100 µM (inactive) | > 100 µM (inactive) | > 100 µM (inactive) | > 100 µM (inactive) | > 100 µM (inactive) | > 100 µM (inactive) | 2.55 µM (inactive) | > 100 µM (inactive) | > 100 µM (inactive) | > 100 µM (inactive) | > 100 µM (inactive) | > 100 µM (inactive)
4 | CCN(CC)CCNc1c2ccccc2nc2cccc([N+](=O)[O-])c12 | 0.00826 µM (active) | 0.0288 µM (active) | 0.00179 µM (active) | 0.00701 | 0.0157 µM (active) | 0.005 µM (active) | 0.0123 µM (active) | 0.00461 µM (active) | 0.0158 µM (active) | 0.0125 µM (active) | 0.0151 µM (active) | 0.0143 µM (active) | 0.0117 µM (active) | 0.0122 µM (active) | 0.0176 µM (active) | 0.0225 µM (active) | 0.00135 µM (active) | 0.0123 µM (active) | 0.0133 µM (active) | 0.0186 µM (active)
5 | CCOc1ccc(/N=N/c2ccc3cc(/C(C)=N/NC(=O)/C(C#N)=C\c4ccc(N(CCC#N)CCC#N)cc4)c(=O)oc3c2)cc1 | > 10 µM (inactive) | > 10 µM (inactive) | > 10 µM (inactive) | > 10 | > 10 µM (inactive) | > 10 µM (inactive) | > 10 µM (inactive) | > 10 µM (inactive) | > 10 µM (inactive) | > 10 µM (inactive) | > 10 µM (inactive) | > 10 µM (inactive) | > 10 µM (inactive) | > 10 µM (inactive) | 1.86 µM (inactive) | > 10 µM (inactive) | > 10 µM (inactive) | > 10 µM (inactive) | > 10 µM (inactive) | > 10 µM (inactive)
6 | CC(C)C(C/C=C1\CC(CO)(COC(=O)CC(C(C)C)C(C)C)OC1=O)C(C)C (stereo not given) | 3.72 µM (inactive) | 7.31 µM (inactive) | 2.96 µM (inactive) | 18.5 | 1.36 µM (inactive) | 14.6 µM (inactive) | 15.6 µM (inactive) | 1.49 µM (inactive) | 6.87 µM (inactive) | 17.6 µM (inactive) | 5.96 µM (inactive) | 15.1 µM (inactive) | 1.05 µM (active) | 17.7 µM (inactive) | 10.4 µM (inactive) | 12.6 µM (inactive) | 15.7 µM (inactive) | 13.8 µM (inactive) | 20.9 µM (inactive) | 13.3 µM (inactive)
7 | CC(C)C1=C(O)C(=O)C2=C(C1=O)C(O)CC1C(C)(C)CCCC21C (stereo not given) | 4.56 µM (inactive) | 14.5 µM (inactive) | 2 µM (inactive) | 3.71 | 6.56 µM (inactive) | 8.55 µM (inactive) | 11.4 µM (inactive) | 12.8 µM (inactive) | 8.05 µM (inactive) | 14.6 µM (inactive) | 3.58 µM (inactive) | 2.67 µM (inactive) | 25.8 µM (inactive) | 22.1 µM (inactive) | 30.2 µM (inactive) | 25.1 µM (inactive) | 5.87 µM (inactive) | 4.8 µM (inactive) | 2.84 µM (inactive) | 5.38 µM (inactive)
8 | CC1CCN(c2nnc(Cl)cc2C(=O)c2ccccc2)CC1 | 32.1 µM (inactive) | 37.6 µM (inactive) | 21.7 µM (inactive) | 35.6 | 53 µM (inactive) | 30.3 µM (inactive) | 22.4 µM (inactive) | 21.9 µM (inactive) | 17.9 µM (inactive) | 29.2 µM (inactive) | 30.5 µM (inactive) | 26.8 µM (inactive) | 20.7 µM (inactive) | 17.7 µM (inactive) | 27.5 µM (inactive) | 29.4 µM (inactive) | 19.4 µM (inactive) | 31.1 µM (inactive) | 18.5 µM (inactive) | 26.9 µM (inactive)
9 | N=C1/C(=C/c2ccccc2)C(=O)N=C2SC=NN12 | > 100 µM (inactive) | > 100 µM (inactive) | > 100 µM (inactive) | > 100 | > 100 µM (inactive) | > 100 µM (inactive) | > 100 µM (inactive) | > 100 µM (inactive) | > 100 µM (inactive) | > 100 µM (inactive) | > 100 µM (inactive) | > 100 µM (inactive) | > 100 µM (inactive) | > 100 µM (inactive) | > 100 µM (inactive) | > 100 µM (inactive) | > 100 µM (inactive) | > 100 µM (inactive) | > 100 µM (inactive) | > 100 µM (inactive)
10 | O=C1Nc2ccccc2/C1=N/NS(=O)(=O)c1ccc(C(=O)O)cc1 | > 100 µM (inactive) | > 100 µM (inactive) | > 100 µM (inactive) | > 100 | > 100 µM (inactive) | > 100 µM (inactive) | > 100 µM (inactive) | > 100 µM (inactive) | > 100 µM (inactive) | > 100 µM (inactive) | > 100 µM (inactive) | > 100 µM (inactive) | > 100 µM (inactive) | > 100 µM (inactive) | > 100 µM (inactive) | > 100 µM (inactive) | > 100 µM (inactive) | > 100 µM (inactive) | > 100 µM (inactive) | > 100 µM (inactive)
11 | C[C@@H]1CC(=O)[C@@]2(C)[C@](O)(CCC3O[C@]32C)[C@@]12CC(c1ccoc1)OC2=O (stereo not given in full) | > 100 µM (inactive) | > 100 µM (inactive) | 33.5 µM (inactive) | 37.8 | 39.1 µM (inactive) | 68.2 µM (inactive) | > 100 µM (inactive) | 65 µM (inactive) | 91 µM (inactive) | > 100 µM (inactive) | > 100 µM (inactive) | 56.9 µM (inactive) | 23 µM (inactive) | 48.5 µM (inactive) | 23.7 µM (inactive) | 35.2 µM (inactive) | 84.5 µM (inactive) | > 100 µM (inactive) | > 100 µM (inactive) | > 100 µM (inactive)
12 | Cc1cn(CCCCCOC(=O)NC(CCCNC(=N)N)C(=O)O)c(=O)[nH]c1=O (stereo not given) | 49.2 µM (inactive) | > 100 µM (inactive) | 6.9 µM (inactive) | 28.1 | 16.1 µM (inactive) | > 100 µM (inactive) | 50.9 µM (inactive) | 26.1 µM (inactive) | 37.1 µM (inactive) | > 100 µM (inactive) | 35.7 µM (inactive) | 26.7 µM (inactive) | 35.6 µM (inactive) | 24.2 µM (inactive) | 31.6 µM (inactive) | 53.6 µM (inactive) | 54.7 µM (inactive) | 50.2 µM (inactive) | > 100 µM (inactive) | 40.8 µM (inactive)
13 | CN(CCn1cnc2c1c(=O)n(C)c(=O)n2C)C1CCCCC1 | > 100 µM (inactive) | > 100 µM (inactive) | > 100 µM (inactive) | > 100 | > 100 µM (inactive) | > 100 µM (inactive) | > 100 µM (inactive) | > 100 µM (inactive) | > 100 µM (inactive) | > 100 µM (inactive) | > 100 µM (inactive) | > 100 µM (inactive) | > 100 µM (inactive) | > 100 µM (inactive) | > 100 µM (inactive) | > 100 µM (inactive) | > 100 µM (inactive) | > 100 µM (inactive) | > 100 µM (inactive) | > 100 µM (inactive)
14 | COc1ccc2nc3ccc(OC)cc3c(SCCO)c2c1 | > 78.7 µM (inactive) | 51.3 µM (inactive) | 9.62 µM (inactive) | 27.4 | 9.91 µM (inactive) | 31.3 µM (inactive) | 36 µM (inactive) | 23.6 µM (inactive) | 13.4 µM (inactive) | 63.8 µM (inactive) | > 75 µM (inactive) | 38.5 µM (inactive) | 3.03 µM (inactive) | 17.3 µM (inactive) | 28.6 µM (inactive) | 8.43 µM (inactive) | 6.01 µM (inactive) | 65 µM (inactive) | 30 µM (inactive) | > 59.7 µM (inactive)
